According to patent US4432987A, “Crystalline benzenesulfonate salts of sultamicillin” (priority 1982, dated 1984):
Structures can show the parent of a compound that is named as a salt. Values belong to the compound of their own block, whether it stands above or below them.

Tests used:
[1] = Storage of anhydrous salt under humidity / atmospheric moisture; type: physicochemical
Excerpt: When 4-chlorobenzenesulfonic acid is used in the above procedure the corresponding anhydrous 4-chlorobenzenesulfonic acid addition salt is obtained.

[2] = Stability on storage at 50° C. for three weeks, retained potency (HPLC); type: physicochemical; settings: 30240 min
Description: (§1) In the solubility and stability studies above samples of the materials were assayed by HPLC using a Chromegabond C-8* column (4.6 mm internal diameter×30 cm.). The mobile phase consisted of 30% by weight acetonitrile in pH 3 phosphate buffer (0.1 M). Flow rate, 1.6 ml/minute. Detection was by UV at 230 nm.

[3] = Apparent solubility of sultamicillin salts in water and simulated gastric juice (without pepsin, pH 1.2), HPLC; type: physicochemical; settings: for Final pH, Simulated Gastric Juice: final pH of the solubility test in simulated gastric juice; for Final pH, Water: final pH of the solubility test in water; for Apparent Solubility, Simulated Gastric Juice: simulated gastric juice without pepsin, pH 1.2, 30 minutes agitation; for Apparent Solubility, Simulated Gastric Juice / Apparent Solubility, Water: 30 min; for Apparent Solubility, Water: 30 minutes vigorous agitation
Description: The solubility of the salts in water and simulated gastric juice without pepsin (pH 1.2) were compared. Equilibrium solubility was not determined since the compounds are not entirely stable in aqueous systems for the extended time required to reach equilibrium. Therefore, the apparent solubility was determined by vigorous agitation for 30 minutes with the solvent. The resulting mixture was then filtered and the amount of compound in solution determined by high pressure liquid chromatography (HPLC).
as §1

[4] = Stability and solubility of sultamicillin forms; type: physicochemical; settings: for stability (in words): solid state / handling
[5] = tested on: Sarcina lutea (ATCCC 9341); settings: no beta-lactamase; sulbactam up to 100 μg./ml.
[6] = tested on: Pasteurella histolytica (59B010); settings: beta-lactamase mediated resistance; high concentrations alone or combined

dihydrate formation upon exposure to atmospheric moisture ([1]; 48 hours): forms a dihydrate
SMILES: CC1(C)S[C@@H]2[C@H](NC(=O)[C@H](N)c3ccccc3)C(=O)N2[C@H]1C(=O)OCOC(=O)[C@@H]1N2C(=O)C[C@H]2S(=O)(=O)C1(C)C

potency retained upon storage ([2]; listed as 4-chlorobenzenesulfonae.2H2 O, dihydrate): 100%
Final pH, Simulated Gastric Juice ([3]; dihydrate): 1.1
Final pH, Water ([3]; dihydrate): 3.8
Apparent Solubility, Simulated Gastric Juice ([3]; dihydrate): 6300 µg/mL
Apparent Solubility, Water ([3]; dihydrate): 3300 µg/mL
SMILES: CC1(C)S[C@@H]2[C@H](NC(=O)[C@H](N)c3ccccc3)C(=O)N2[C@H]1C(=O)OCOC(=O)[C@@H]1N2C(=O)C[C@H]2S(=O)(=O)C1(C)C [4-Chlorobenzenesulfonate.2H2 O, 1,1-Dioxopenicillanoyloxymethyl 6-[D-(2-amino-2-phenylacetamido)]penicillanate 4-chlorobenzenesulfonate dihydrate]

potency retained upon storage ([2]; benzenesulfonate dihydrate): 97%
Final pH, Simulated Gastric Juice ([3]; benzenesulfonate dihydrate): 2.0
Final pH, Water ([3]; benzenesulfonate dihydrate): 3.4
Apparent Solubility, Simulated Gastric Juice ([3]; benzenesulfonate dihydrate): 1800 µg/mL
Apparent Solubility, Water ([3]; benzenesulfonate dihydrate): 2150 µg/mL
SMILES: CC1(C)S[C@@H]2[C@H](NC(=O)[C@H](N)c3ccccc3)C(=O)N2[C@H]1C(=O)OCOC(=O)[C@@H]1N2C(=O)C[C@H]2S(=O)(=O)C1(C)C [Benzenesulfonate.2H2 O, 1,1-Dioxopenicillanoyloxymethyl 6-[D-(2-amino-2-phenylacetamido)]penicillanate benzenesulfonate dihydrate]

potency retained upon storage ([2]; listed as hydrochloride salt, hydrochloride): 67%
Final pH, Simulated Gastric Juice ([3]; hydrochloride): 1.12
Final pH, Water ([3]; hydrochloride): 2.0
Apparent Solubility, Simulated Gastric Juice ([3]; hydrochloride): > 79000 µg/mL
Apparent Solubility, Water ([3]; hydrochloride): > 94000 µg/mL
solubility in water / aqueous systems (in words) [4]: highly soluble in water
stability in water (in words) ([4]; aqueous): subject to hydrolytic decomposition
stability (in words) ([4]; hydrochloride): poor solid state stability
SMILES: CC1(C)S[C@@H]2[C@H](NC(=O)[C@H](N)c3ccccc3)C(=O)N2[C@H]1C(=O)OCOC(=O)[C@@H]1N2C(=O)C[C@H]2S(=O)(=O)C1(C)C [Hydrochloride, 1,1-Dioxopenicillanoyloxymethyl 6-[D-(2-amino-2-phenylacetamido)]penicillanate hydrochloride]

SMILES: CC1(C)S[C@@H]2[C@H](NC(=O)[C@H](N)c3ccccc3)C(=O)N2[C@H]1C(=O)OCOC(=O)[C@@H]1N2C(=O)C[C@H]2S(=O)(=O)C1(C)C [Sultamicillin free base, 1,1-dioxopenicillanoyloxymethyl 6-[D-(2-amino-2-phenylacetamido)]penicillanate]
stability (in words) [4]: poor handling characteristics and inadequate stability

SMILES: CC1(C)S[C@@H]2[C@H](NC(=O)[C@H](N)c3ccccc3)C(=O)N2[C@H]1C(=O)O [ampicillin]
susceptibility / synergy, Sarcina lutea [5]: susceptible
susceptibility / synergy, Pasteurella histolytica [6]: insensitivity

water content of dihydrate formed upon storage ([1]; 50% relative humidity, 30 hours, by weight): 4.5%
SMILES: CC1(C)S[C@@H]2[C@H](NC(=O)[C@H](N)c3ccccc3)C(=O)N2[C@H]1C(=O)OCOC(=O)[C@@H]1N2C(=O)C[C@H]2S(=O)(=O)C1(C)C [anhydrous salt, Anhydrous 1,1-Dioxopenicillanoyloxymethyl 6-[D-(2-amino-2-phenylacetamido)]penicillanate benzenesulfonate]

SMILES: CC1(C)[C@H](C(=O)O)N2C(=O)C[C@H]2S1(=O)=O [sulbactam, penicillanic acid 1,1-dioxide]
susceptibility / synergy, Sarcina lutea [5]: insensitive to sulbactam at concentrations as high as 100 μg./ml.
susceptibility / synergy, Pasteurella histolytica [6]: insensitivity
